Experimental data taken from ChEMBL document CHEMBL5055667, “Development of Novel VEGFR2 Inhibitors Originating from Natural Product Analogues with Antiangiogenic Impact” (J Med Chem, 2021).
Blank lines part the entries; values can stand above or below the molecule they belong to. Calls of active or inactive are those of the source. The calls are words filed in the database; no cut-off is given here.

What was measured:
[1] = molecular target: Vascular endothelial growth factor receptor 2 (Homo sapiens, UniProt P35968); experiment: Inhibition of VEGFR2 phosphorylation in VEGF-induced HUVEC cells pretreated measured after overnight incubation by immunoblotting analysis; assay type: cell-based
Sequence of Vascular endothelial growth factor receptor 2 (P35968 whole entry): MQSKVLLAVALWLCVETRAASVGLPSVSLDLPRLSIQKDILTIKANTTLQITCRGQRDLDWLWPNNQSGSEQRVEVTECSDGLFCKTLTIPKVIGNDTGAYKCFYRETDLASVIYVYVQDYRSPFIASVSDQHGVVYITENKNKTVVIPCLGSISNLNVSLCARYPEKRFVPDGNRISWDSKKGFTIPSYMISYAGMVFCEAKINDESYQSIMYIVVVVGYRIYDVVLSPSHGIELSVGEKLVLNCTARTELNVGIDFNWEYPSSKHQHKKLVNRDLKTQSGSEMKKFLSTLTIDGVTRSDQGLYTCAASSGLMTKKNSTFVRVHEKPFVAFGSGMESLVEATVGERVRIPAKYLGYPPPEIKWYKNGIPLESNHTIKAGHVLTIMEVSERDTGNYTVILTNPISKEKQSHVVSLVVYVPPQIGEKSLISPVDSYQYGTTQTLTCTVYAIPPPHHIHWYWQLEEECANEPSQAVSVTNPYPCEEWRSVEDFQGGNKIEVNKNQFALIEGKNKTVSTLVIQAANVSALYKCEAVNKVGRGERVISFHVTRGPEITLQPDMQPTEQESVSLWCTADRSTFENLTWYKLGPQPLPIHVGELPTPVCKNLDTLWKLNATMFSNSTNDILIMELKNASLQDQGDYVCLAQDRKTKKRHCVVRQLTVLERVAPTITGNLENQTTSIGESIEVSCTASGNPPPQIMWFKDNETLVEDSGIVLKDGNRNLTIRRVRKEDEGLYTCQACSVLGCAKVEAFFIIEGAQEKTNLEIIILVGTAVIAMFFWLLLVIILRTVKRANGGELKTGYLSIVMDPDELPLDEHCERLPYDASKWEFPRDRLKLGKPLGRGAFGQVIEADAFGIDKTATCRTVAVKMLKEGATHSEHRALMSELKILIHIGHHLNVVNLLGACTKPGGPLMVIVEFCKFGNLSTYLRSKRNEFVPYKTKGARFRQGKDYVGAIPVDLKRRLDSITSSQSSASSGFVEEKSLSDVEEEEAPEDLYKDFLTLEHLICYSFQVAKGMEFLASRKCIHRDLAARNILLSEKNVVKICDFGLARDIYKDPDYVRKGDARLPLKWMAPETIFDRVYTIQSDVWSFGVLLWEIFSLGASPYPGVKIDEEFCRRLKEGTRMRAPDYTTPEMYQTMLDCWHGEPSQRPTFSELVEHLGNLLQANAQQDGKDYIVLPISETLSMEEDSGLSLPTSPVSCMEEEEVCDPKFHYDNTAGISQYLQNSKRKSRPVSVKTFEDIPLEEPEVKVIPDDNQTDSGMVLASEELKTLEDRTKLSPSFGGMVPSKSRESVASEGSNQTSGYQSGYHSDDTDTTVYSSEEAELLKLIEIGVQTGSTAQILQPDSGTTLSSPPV

U-87 MG [2] = experiment: Antiangiogenic activity against human U-87MG cells xenografted in mouse assessed as reduction in HIF1alpha expression at 10 mg/kg, ip treated every other day for 20 days by fluorescence microscopy; assay type: functional, organism-based; settings: U-87MG ATCC, time 20.0 day
U-87 MG [3] = experiment: Antiangiogenic activity against human U-87MG cells xenografted in mouse assessed as reduction in vascular density at 10 mg/kg, ip treated every other day for 20 days by H& E staining analysis relative to control; assay type: functional, U-87MG ATCC; settings: 480 h, time 20 day
U-87 MG [4] = experiment: Antiangiogenic activity against human U-87MG cells xenografted in mouse assessed as reduction in Bcl-xl expression at 10 mg/kg, ip treated every other day for 20 days by Western blotting analysis; assay type: functional, U-87MG ATCC; settings: 480 h, time 20 day
U-87 MG [5] = experiment: Antitumor activity against human U-87MG cells xenografted in mouse assessed as reduction in tumor size at 10 mg/kg, ip treated every other day for 20 days; assay type: functional, organism-based; settings: U-87MG ATCC, time 20.0 day
U-87 MG [6] = experiment: Antiangiogenic activity against human U-87MG cells xenografted in mouse assessed as reduction in pVEGFR2 expression at 10 mg/kg, ip treated every other day for 20 days by Western blotting analysis; assay type: functional, U-87MG ATCC; settings: 480 h, time 20 day
U-87 MG [7] = experiment: Antiproliferative activity against human U87MG cells incubated for 72 hrs under VEGF treatment by MTT assay; assay type: functional, cell-based; settings: U-87MG ATCC
Mus musculus = experiment: Toxicity in mouse assessed as change in body weight at 10 mg/kg, ip treated every other day for 20 days; assay type: organism-based; settings: in vivo, 480 h, time 20 day
U-87 MG [8] = experiment: Antiproliferative activity against human U-87MG cells incubated for 72 hrs under serum treatment by MTT assay; assay type: functional, cell-based; settings: U-87MG ATCC
U-87 MG [9] = experiment: Antitumor activity against human U-87MG cells xenografted in mouse assessed as reduction in tumor weight at 10 mg/kg, ip treated every other day for 20 days; assay type: functional, organism-based; settings: U-87MG ATCC, time 20.0 day
HUVEC [10] = experiment: Antiproliferative activity against HUVEC cells incubated for 72 hrs under VEGF treatment by MTT assay; assay type: functional, cell-based; settings: Homo sapiens
HUVEC [11] = experiment: Antiproliferative activity against HUVEC cells incubated for 72 hrs under serum treatment by MTT assay; assay type: functional, cell-based; settings: Homo sapiens
U-87 MG [12] = experiment: Antiangiogenic activity against human U-87MG cells xenografted in mouse assessed as reduction in CD31 expression at 10 mg/kg, ip treated every other day for 20 days by Western blotting analysis; assay type: functional, U-87MG ATCC; settings: 480 h, time 20 day

IC50 [1]: > 20 µM
SMILES: COc1ccc2[nH]c3c(c2c1)CN(C(=O)Cc1ccncc1)CCC3

IC50 [1]: > 20 µM
SMILES: COc1ccc2[nH]c3c(c2c1)CN(C(=O)CC(C)C)CCC3

SMILES: COc1ccc2[nH]c3c(c2c1)CN(C(=O)Cc1ccccn1)CCC3
Activity (U-87 MG [2]): Active | inhibition in vivo at 10 mg/kg (U-87 MG [3]): 73% | inhibition in vivo at 10 mg/kg (U-87 MG [4]): 20% | Activity (U-87 MG [5]): Active | inhibition in vivo at 10 mg/kg (U-87 MG [6]): 60% | Activity (U-87 MG [7]): Active | Activity (Mus musculus): Non-Toxic | Activity (U-87 MG [8]): inactive | Activity (U-87 MG [9]): Active | Activity (HUVEC [10]): Active | Activity (HUVEC [11]): inactive | inhibition in vivo at 10 mg/kg (U-87 MG [12]): 60%

IC50 [1]: > 20 µM
SMILES: COc1ccc2[nH]c3c(c2c1)CN(C(=O)CN1CCOCC1)CCC3

IC50 [1]: > 20 µM
SMILES: COc1ccc2[nH]c3c(c2c1)CNCCC3

IC50 [1]: > 20 µM
SMILES: COc1ccc2[nH]c3c(c2c1)CN(C(=O)Cc1ccccc1)CCC3
